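How tested: cells in 96-well plates exposed to compound for 48 hours at five concentrations. The concentration for 50% growth inhibition is given as GI50. Definition used: TGI = concentration required for complete inhibition of growth.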
Tests used:
Assay in all cases: NCI-60 cell line screen, 48 h
T-47D breast = system: T-47D breast
TK-10 renal = system: TK-10 renal
M14 melanoma = system: M14 melanoma
EKVX NSCLC = system: EKVX NSCLC
A498 renal = system: A498 renal
SK-MEL-2 melanoma = system: SK-MEL-2 melanoma
RXF 393 renal = system: RXF 393 renal
MDA-N = system: MDA-N
DU-145 prostate = system: DU-145 prostate
HOP-92 NSCLC = system: HOP-92 NSCLC

Row | SMILES | TGI (T-47D breast) [µM] | TGI (TK-10 renal) [µM] | TGI (M14 melanoma) [µM] | TGI (EKVX NSCLC) [µM] | TGI (A498 renal) [µM] | TGI (SK-MEL-2 melanoma) [µM] | TGI (RXF 393 renal) [µM] | TGI (MDA-N) [µM] | TGI (DU-145 prostate) [µM] | TGI (HOP-92 NSCLC) [µM] | GI50 (A498 renal) [µM]
1 | c1ccc(-c2cc(-c3cc(-c4ccccc4)n[nH]3)[nH]n2)cc1 | > 100 | > 100 | > 100 | > 100 | > 100 | > 100 | > 100 | > 100 | > 100 |  | 
2 | c1ccc2c(Cc3c[nH]c4ccccc34)c[nH]c2c1 | 63.7 | 35.2 | 34.1 | 32.5 | > 100 | 52.6 | 33.1 | 41.5 | 34.6 | 35.6 | 
3 | O=C1CNc2cc(N3CCN(c4cccc(C(F)(F)F)c4)CC3)ccc2N1 | > 100 | > 100 | > 100 | > 100 | > 100 | > 100 |  | > 100 | > 100 | > 78.8 | 24.7
4 | CCO[C@H]1C[C@@H](c2ccccc2)[C@]2(C)C[C@H](C(=O)OC)ON2O1 | > 100 | > 100 | > 100 | > 100 | > 100 | > 100 | > 100 | > 100 | > 100 | > 100 | 
5 | Cc1ccc(N2C(=O)CC(=O)N(NC(=O)C(C)Oc3ccccc3C)C2=S)cc1 (configuration not stated) | > 100 | > 100 | > 100 | > 100 | > 100 | > 100 | > 100 | > 100 | > 100 | > 100 | 
6 | COc1ncc(C#CC(=O)c2ccccc2OC)c(OC)n1 | 22.9 | 2.62 | 5.05 | 10.3 | 35.2 | 6.4 | 3.32 | 3.41 | 12.3 | 4.47 | 
7 | O=C1NC(N/N=C/C(O)C(O)C(O)C(O)CO)=N/C1=C\c1cccs1 (configuration not stated) | > 100 | > 100 | > 100 | > 100 | > 100 | > 100 | > 100 | > 100 | > 100 | > 100 | 
8 | NNC(=O)CCCCCCCC(=O)O | > 100 | > 100 | > 100 | > 100 | > 100 | > 100 |  | > 100 | > 100 | > 100 | 
9 | C=CCOc1ccc(C2c3c([nH][nH]c3=O)CC(C)(O)C2C(=O)OC)cc1OC (configuration not stated) | > 100 | > 100 | > 100 | > 100 | > 100 | > 100 |  | > 100 | > 100 | > 100 | 
10 | C=C(Br)C(Cl)(CBr)CCC(Br)C(C)(C)Cl (configuration not stated) | > 10 | > 10 | > 10 | > 10 | > 10 | > 10 | > 10 | > 10 | > 10 | > 10 | 
11 | FC(F)(F)C1(C(F)(F)F)OC(Cl)(Cl)C(Cl)(Cl)O1 | > 10 | > 10 | > 10 | > 10 | > 10 | > 10 | > 10 | > 10 | > 10 | > 10 | 
12 | C/C=C/[C@@H]1O[C@H](CC#C[Si](C)(C)C)[C@@]2(C=O)C(C)=CC[C@H](C(C)C)[C@@H]12 | > 100 | 31.5 | 37.2 | 41 | 89.6 | 33.5 | 36.8 | 43.9 | 51.8 | 41.4 | 
13 | O=C(CN=C(CN(c1ccccc1)c1ccccc1)Oc1c([N+](=O)[O-])cc([N+](=O)[O-])cc1[N+](=O)[O-])N1CCNCC1 | > 100 | > 100 | > 100 | > 100 |  |  | > 100 | > 100 | > 100 | > 100 | 
14 | Cc1[nH]n(-c2nc(O)c(C)c(=O)[nH]2)c(=O)c1CCO | > 100 | > 100 | > 100 | > 100 | > 100 | > 100 | 93.3 | > 100 | > 100 | > 100 | 
15 | OCCCN(CCc1ccc(Cl)c(Cl)c1)CCN1CCCC1 | > 100 | > 100 | 32.9 | > 100 | 44.6 | 36.6 | > 100 | 42.7 | > 100 | > 100 | 
16 | CC1(C)OC[C@@]2([C@@H]3CC[C@@H](C3)C2(C)C)N1O | > 100 | > 100 | > 100 | > 100 | > 100 | > 100 | > 100 | > 100 | > 100 | > 100 | 
17 | C(/C=N/NC1=NCCN1)=N\NC1=NCCN1 | > 100 |  | > 100 | > 100 | > 100 | > 100 | > 100 | > 100 |  | > 100 | 
18 | O=C(O)c1cc2c(cc1S(=O)(=O)O)C1C(C3C2C2(Cl)C(Cl)=C(Cl)C3(Cl)C2(Cl)Cl)C2(Cl)C(Cl)=C(Cl)C1(Cl)C2(Cl)Cl (configuration not stated) | > 100 | > 100 | > 100 | > 100 | > 100 | 73.4 | > 100 | > 100 | > 100 | 85.2 | 
19 | CCOC(=O)NNC1(SC)NC(=O)c2c(cc(Cl)oc2=O)O1 (configuration not stated) | 29.9 | 10.1 | 11.7 | 20.4 | 29.2 | 24 | 6.93 | 22.2 | 19.7 | 4.63 | 
20 | Cc1ccc(NNc2cc(=O)[nH]c(=O)[nH]2)cc1Cl | 25.1 | 33.1 | 26.9 |  | > 100 | 30.9 | 30.4 | 28.6 | > 100 | 27.9 | 
21 | C=CCC1(O)c2cccc(O)c2C(=O)c2cccc(O)c21 (configuration not stated) | 30.2 | 73.5 | 32 | 60.1 | 37 | 31.1 | 37 | 31.1 | 54.5 | 42.3 | 
22 | CC1(C)N=C(N)N=C(N)N1c1ccc(CCCCc2ccc(Cl)cc2Cl)cc1 | 23.9 | 15.7 | 14 | 45.1 | 28.8 | 13.5 | 20.4 | 2.67 | 17.3 | 18 | 

Source: PubChem BioAssay (NCI)
